Laboratory results taken from patent publication US10577373B2, “TYK2 inhibitors and uses thereof” (Nimbus Lakshmi, Inc., priority 2017, dated 2020).

Tests used:
[1] = tested on: IL-12 induced STAT4 phophorylation mediated by Tyk2/JAK2 (heterodimeric complex); assay: IL-12 Induced pSTAT4 in Human PBMC; format: cell-based; settings: 1.7 ng/mL IL-12
Description: The IL-12 Induced pSTAT4 assay evaluates the inhibition of IL-12 induced STAT4 phophorylation mediated by Tyk2/JAK2 (heterodimeric complex).

[2] = tested on: GM-CSF induced STAT5 phosphorylation mediated by the JAK2/JAK2 homdimeric complex; assay: GM-CSF Induced pSTAT5 in Human PBMC; settings: Homo sapiens, PBMC, 20 min, read-out: PBMC_GMCSF_pSTAT5 IC50, human PBMC; GM-CSF 5 ng/mL for 20 minutes; pSTAT5
Description: Human PBMC are isolated from buffy coat and are stored frozen for assays as needed.

Compound	IC50 [1] [nM]	IC50 [2] [nM]
CNc1cc(Nc2cccn(-c3cc(C)on3)c2=O)nc2c(C(=O)NC3CCC3)cnn12 [I-160]	< 100	> 12500
CNc1cc(-c2cn(C(C)C)c3ncccc23)nc2c(C(=O)N[C@H]3CC[C@H]3O)cnn12 [I-637]	< 100	> 12500
CNc1cc(Nc2cc(Cl)cn(-c3ccn(C)n3)c2=O)nc2c(C(=O)NC3CC3)cnn12 [I-310]	< 100	> 2500
CNc1cc(Nc2cccc3ocnc23)nc2c(C(=O)N[C@H]3COC[C@H]3O)cnn12 [I-834]	100 to 500	> 50000
CNc1cc(Nc2cccnc2OC(F)F)nc2c(C(=O)NC3CC3)cnn12 [I-154]	< 100	> 12500
CNc1cc(Nc2cccnc2OC)nc2c(C(=O)N[C@H]3C[C@@H]3O)cnn12 [I-438, N-((1S,2S)-2-hydroxycyclopropyl)-5-((2-methoxypyridin-3-yl)amino)-7-(methylamino)pyrazolo[1,5-a]pyrimidine-3-carboxamide]	< 100	> 50000
CNc1cc(Nc2cccn(-c3ccon3)c2=O)nc2c(C(=O)NC3CCC3)cnn12 [I-158]	< 100	> 50000
[2H]C([2H])([2H])Oc1ncc(F)cc1Nc1cc(NC)n2ncc(C(=O)NC3CCC3)c2n1 [I-288]	< 100	> 2500
CNc1cc(Nc2cccnc2OC2CC2)nc2c(C(=O)N[C@H]3COC[C@H]3O)cnn12 [I-547]	100 to 500	> 50000
CNc1cc(Nc2cc(C)cc(F)c2)nc2c(C(=O)NC3CC3)cnn12 [I-6]	< 100	> 50000
CNc1cc(Nc2cccn(-c3nc(C)co3)c2=O)nc2c(C(=O)NC3CCC3)cnn12 [I-386]	< 100	> 50000
CNc1cc(Nc2cc(Cl)cn(-c3cnn(C)c3)c2=O)nc2c(C(=O)N[C@H]3C[C@H]3F)cnn12 [I-312]	< 100	> 12500
CNc1cc(Nc2cccc(N3CCOCC3)n2)nc2c(C(=O)N[C@H]3C[C@H]3F)cnn12 [I-590]	< 100	> 12500
CNc1cc(Nc2cccc(-c3cn(C)nc3F)n2)nc2c(C(=O)N[C@@H]3C[C@@H]3F)cnn12 [I-860]	< 100	> 50000
CNc1cc(Nc2cccc([C@H]3CCCOC3)n2)nc2c(C(=O)N[C@H]3C[C@H]3F)cnn12 [I-563]	< 100	> 50000
CNc1cc(Nc2cc(C)cn(-c3cnn(C)c3)c2=O)nc2c(C(N)=O)cnn12 [I-31]	100 to 500	> 300
CCOc1ccc(-n2cccc(Nc3cc(NC)n4ncc(C(=O)N[C@H]5C[C@H]5F)c4n3)c2=O)nn1 [I-117]	< 100	> 2500
CNc1cc(-c2cn(C(C)C)c3ncc(C)cc23)nc2c(C(N)=O)cnn12 [I-255]	< 100	> 50000
COc1ncccc1Nc1cc(NCCCN2CCOCC2)n2ncc(C(=O)N[C@@H]3C[C@@H]3F)c2n1 (stereo in doubt) [I-377, N-((1R,2S)-2-fluorocyclopropyl)-5-((2-methoxypyridin-3-yl)amino)-7-((3-morpholinopropyl)amino)pyrazolo[1,5-a]pyrimidine-3-carboxamide]	100 to 500	> 50000
CNc1cc(Nc2cccn(-c3cnc(C(=O)N(C)C)cn3)c2=O)nc2c(C(=O)NC3CCC3)cnn12 [I-122]	< 100	> 2500
CNc1cc(Nc2cccn(-c3cccc(C(C)(C)O)n3)c2=O)nc2c(C(=O)N[C@H]3C[C@H]3F)cnn12 [I-123]	< 100	> 50000
CNc1cc(Nc2cccn(C3CCC4(CC3)OCCO4)c2=O)nc2c(C(=O)NC3CC3)cnn12 [I-393]	< 100	> 12500

Compound	IC50 [1] [nM]	IC50 [2] [nM]
CNc1cc(Nc2cccn([C@H]3CC[C@H](OC)CC3)c2=O)nc2c(C(=O)N[C@H]3CC[C@@H]3O)cnn12 [I-540]	< 100	> 12500
CNc1cc(Nc2cccn(C3CCOCC3)c2=O)nc2c(C(=O)N[C@H]3C[C@H]3F)cnn12 [I-330]	< 100	> 2500
CNc1cc(Nc2cccnc2OC(C)C)nc2c(C(=O)N[C@H]3C[C@H]3F)cnn12 [I-147]	< 100	> 50000
CNc1cc(Nc2cccn([C@H]3CCCOC3)c2=O)nc2c(C(=O)NC3CCC3)cnn12 [I-354]	< 100	> 2500
CNc1cc(Nc2cccn([C@H]3CC[C@H](OC)CC3)c2=O)nc2c(C(=O)NC3CCC3)cnn12 [I-345]	< 100	> 50000
CNc1cc(Nc2cc(Cl)cn([C@@H]3CCCOC3)c2=O)nc2c(C(=O)NC3CC3)cnn12 [I-783]	< 100	> 50000
CNc1cc(Nc2cc(F)cn(-c3ccn(C)n3)c2=O)nc2c(C(=O)N[C@H]3C[C@H]3F)cnn12 [I-379]	< 100	> 2500
CNc1cc(Nc2cccn(-c3cccc(F)c3)c2=O)nc2c(C(=O)N[C@@H]3CC[C@H]3O)cnn12 [I-946]	< 100	> 50000
CNc1cc(Nc2cccn(-c3cn(C)nc3F)c2=O)nc2c(C(=O)N[C@H]3C[C@H]3F)cnn12 [I-607]	< 100	> 50000
CNc1cc(Nc2cc(Cl)cn(C3CCOCC3)c2=O)nc2c(C(=O)N[C@H]3CC[C@@H]3O)cnn12 [I-712]	< 100	> 12500
CNC(=O)c1occc1Nc1cc(NC)n2ncc(C(=O)N[C@H]3CC[C@@H]3OC)c2n1 [I-1323]	< 100	–
CNc1cc(-c2cn(C3CC3)c3ncccc23)nc2c(C(=O)N[C@H]3CC[C@@H]3OC)cnn12 [I-1325]	< 100	–
CNc1cc(-c2cn([C@H]3CCCOC3)c3ncccc23)nc2c(C(=O)N[C@H]3CC[C@@H]3OC)cnn12 [I-1365]	< 100	–
CNc1cc(Nc2cccn([C@H]3CCC[C@H](O)C3)c2=O)nc2c(C(=O)N[C@@H]3CC[C@H]3OC)cnn12 [I-1395]	< 100	–
CNc1cc(-c2cn([C@@H]3CCCOC3)c3ncccc23)nc2c(C(=O)N[C@H]3CC[C@@H]3OC)cnn12 [I-1364]	< 100	–
CNc1cc(-c2cn(CCCO)c3ncccc23)nc2c(C(=O)N[C@H]3CC[C@@H]3OC)cnn12 [I-1388]	< 100	–
CNc1cc(Nc2cccn([C@@H]3CCCOC3)c2=O)nc2c(C(=O)NC3CC3)cnn12 [I-351]	< 100	–
CNc1cc(Nc2cccn([C@H]3CCC[C@@H](O)C3)c2=O)nc2c(C(=O)N[C@H]3CC[C@@H]3OC)cnn12 [I-1296]	< 100	–
CNc1cc(Nc2cccn(C3CC(F)(F)C3)c2=O)nc2c(C(=O)N[C@H]3CC[C@@H]3OC)cnn12 [I-1389]	< 100	–
CNc1cc(Nc2cccn([C@@H]3CCCN(CCF)C3)c2=O)nc2c(C(=O)N[C@H]3CC[C@@H]3OC)cnn12 [I-1382]	< 100	–
CNc1cc(-c2cn(CCCO)c3ncccc23)nc2c(C(=O)N[C@@H]3CC[C@H]3OC)cnn12 [I-1299]	< 100	–
CNc1cc(Nc2cccn(-c3ccccn3)c2=O)nc2c(C(=O)N[C@@H]3C[C@H]3OC)cnn12 [I-1286]	< 100	–

Compound	IC50 [1] [nM]	IC50 [2] [nM]
CNc1cc(Nc2cccn([C@H]3CC[C@](C)(O)CC3)c2=O)nc2c(C(=O)NC3CC3)cnn12 [I-371]	100 to 500	–
CNc1cc(Nc2cccn3ccnc23)nc2c(C(=O)N[C@@H]3CC[C@H]3OC)cnn12 [I-1133]	< 100	–
CNc1cc(Nc2cccn([C@H]3CCN(CCF)C3)c2=O)nc2c(C(=O)N[C@H]3CC[C@@H]3OC)cnn12 [I-1381]	< 100	–
CNc1cc(Nc2cccn(-c3cnn(C)c3F)c2=O)nc2c(C(=O)N[C@H]3CC[C@@H]3OC)cnn12 [I-1369]	< 100	–
CNc1cc(-c2cn(C3CCOCC3)c3ncccc23)nc2c(C(=O)N[C@@H]3CC[C@H]3OC)cnn12 [I-1328]	< 100	–
CNc1cc(Nc2cccn(-c3nn(C)cc3C)c2=O)nc2c(C(=O)NC3CC3)cnn12 [I-404]	> 1000	–
CNc1cc(Nc2cccn(-c3nn(C)cc3F)c2=O)nc2c(C(=O)N[C@@H]3C[C@@H]3F)cnn12 [I-1321]	< 100	–
CNc1cc(Nc2cccn([C@H]3[C@@H]4COC[C@@H]43)c2=O)nc2c(C(=O)N[C@@H]3CC[C@H]3OC)cnn12 [I-1354]	< 100	–
CNc1cc(Nc2cccn3cnnc23)nc2c(C(=O)N[C@H]3CC[C@@H]3OC)cnn12 [I-1343]	< 100	–
CNc1cc(Nc2cccn([C@H]3CCC[C@H](OC)C3)c2=O)nc2c(C(=O)N[C@@H]3CC[C@H]3OC)cnn12 [I-1374]	< 100	–
CNc1cc(-c2cn(C3CCOCC3)c3ncc(F)cc23)nc2c(C(=O)N[C@H]3CC[C@@H]3O)cnn12 [I-1314]	< 100	–
CNc1cc(Nc2cccn([C@@H]3CC[C@@H]3O)c2=O)nc2c(C(=O)N[C@H]3CC[C@@H]3OC)cnn12 [I-1411]	< 100	–
CNc1cc(Nc2cccn([C@@H]3CCN(CCF)C3)c2=O)nc2c(C(=O)N[C@@H]3CC[C@H]3OC)cnn12 [I-1333]	< 100	–
CNc1cc(Nc2cccn([C@@H]3CC[C@H]3O)c2=O)nc2c(C(=O)N[C@@H]3CC[C@H]3OC)cnn12 [I-1309]	< 100	–
[2H]C([2H])([2H])Oc1ncccc1Nc1cc(NC)n2ncc(C(=O)N[C@H]3CC[C@@H]3O)c2n1 [I-411]	< 100	–
CNc1cc(Nc2cccn([C@H]3CCC[C@@H](OC)C3)c2=O)nc2c(C(=O)NCC(C)(C)CO)cnn12 [I-861]	< 100	–
CNc1cc(Nc2cccn(-c3ccc(F)cc3)c2=O)nc2c(C(N)=O)cnn12 [I-9]	100 to 500	–
CNc1cc(Nc2cccn([C@H]3CCC[C@H]3O)c2=O)nc2c(C(=O)N[C@H]3CC[C@@H]3OC)cnn12 [I-1373]	< 100	–
CNc1cc(Nc2cccn([C@@H]3CCC[C@@H](OC)C3)c2=O)nc2c(C(=O)N[C@H]3CC[C@@H]3OC)cnn12 [I-1331]	< 100	–
CNc1cc(Nc2cccn(-c3nn(C)cc3C)c2=O)nc2c(C(=O)N[C@H]3C[C@H]3F)cnn12 [I-405]	100 to 500	–
CNc1cc(Nc2cccn([C@H]3CC[C@@H]3O)c2=O)nc2c(C(=O)N[C@H]3CC[C@@H]3OC)cnn12 [I-1385]	< 100	–
